# From patent publication US20090099177A1, “PYRIDYL COMPOUNDS” (priority 2006, published 2009)
# Structures can show the parent of a compound that is named as a salt.
# What was measured:
# [1] = target: T1, human prostanoid EP1 receptor (Homo sapiens, UniProt P34995); experiment: Binding assay for the human prostanoid EP1 receptor (competition with [3H]-PGE2); conditions: [3H]-PGE2 competition, human EP1, CHO-K1 membranes; averages of a number of experiments; read-out: pIC50 value (converted)
# T1 construct: expressed in transfected cells; host or cells: CHO-K1 (membrane fraction)
# T1 sequence (P34995 1-402): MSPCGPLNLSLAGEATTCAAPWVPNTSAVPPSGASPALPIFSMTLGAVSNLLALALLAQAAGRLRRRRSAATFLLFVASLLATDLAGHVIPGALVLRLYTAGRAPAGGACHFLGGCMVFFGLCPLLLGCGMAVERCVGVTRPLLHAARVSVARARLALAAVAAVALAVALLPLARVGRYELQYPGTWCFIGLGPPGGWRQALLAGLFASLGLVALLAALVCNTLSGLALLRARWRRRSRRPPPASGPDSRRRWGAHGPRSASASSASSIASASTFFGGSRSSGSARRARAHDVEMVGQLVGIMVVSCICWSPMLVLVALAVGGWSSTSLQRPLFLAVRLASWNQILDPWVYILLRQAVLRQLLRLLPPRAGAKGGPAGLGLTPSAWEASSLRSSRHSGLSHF
# Protocol: Competition assay using [^3H]-PGE2.
# Compound potencies are determined using a radioligand binding assay. In this assay compound potencies are determined from their ability to compete with tritiated prostaglandin E2 ([^3H]-PGE2) for binding to the human EP1 receptor.
# This assay utilises Chinese hamster ovary-K1 (CHO-K1) cells into which a stable vector containing the EP1 cDNA has previously been transfected. Cells are cultured in suitable flasks containing culture medium such as DMEM:F-12 supplemented with 10% v/v foetal calf serum, 2 mM L-glutamine, 0.25 mg/ml geneticin, 10 μg/ml puromycin and 10 μM indomethacin.
# Cells are detached from the culture flasks by incubation in calcium and magnesium free phosphate buffered saline containing 1 mM disodium ethylenediaminetetraacetic acid (Na2EDTA) and 10 μM indomethacin for 5 min. The cells are isolated by centrifugation at 250×g for 5mins and suspended in an ice cold buffer such as 50 mM Tris, 1 mM Na2EDTA, 140 mM NaCl, 10 μM indomethacin (pH 7.4). The cells are homogenised using a Polytron tissue disrupter (2×10 s burst at full setting), centrifuged at 48,000×g for 20mins and the pellet containing the membrane fraction is washed (optional) three times by suspension and centrifugation at 48,000×g for 20mins. The final membrane pellet is suspended in an assay buffer such as 10 mM 2-[N-morpholino]ethanesulphonic acid, 1 mM Na2EDTA, 10 mM MgCl2 (pH 6). Aliquots are frozen at −80° C. until required.
# For the binding assay the cell membranes, competing compounds and [^3H]-PGE2 (3 nM final assay concentration) are incubated in a final volume of 100 μl for 30 min at 30° C. All reagents are prepared in assay buffer. Reactions are terminated by rapid vacuum filtration over GF/B filters using a Brandell cell harvester. The filters are washed with ice cold assay buffer, dried and the radioactivity retained on the filters is measured by liquid scintillation counting in Packard TopCount scintillation counter.
# The data are analysed using non linear curve fitting techniques to determine the concentration of compound producing 50% inhibition of specific binding (IC50).
# human EP1 receptor = target: T2, human EP1 receptor (Homo sapiens, UniProt P34995); experiment: human EP1 calcium mobilisation assay; format: cell-based; conditions: for Ki: human EP1, CHO-K1 cells, antagonism of PGE2, averages of a number of experiments, read-out: functional pKi value (converted); for IC50: human EP1 calcium mobilisation assay, read-out: pIC50 values (converted)
# T2 construct: expressed in transfected cells; host or cells: CHO-K1
# T2 sequence (P34995 1-402): T1 sequence (P34995 1-402)
# Protocol: Briefly, the antagonist properties of compounds are assessed by their ability to inhibit the mobilisation of intracellular calcium ([Ca^2+]i) in response to activation of EP1 or EP3 receptors by the natural agonist hormone prostaglandin E2 (PGE2). Increasing concentrations of antagonist reduce the amount of calcium that a given concentration of PGE2 can mobilise. The net effect is to displace the PGE2 concentration-effect curve to higher concentrations of PGE2. The amount of calcium produced is assessed using a calcium-sensitive fluorescent dye such as Fluo-4, AM and a suitable instrument such as a Fluorimetric Imaging Plate Reader (FLIPR). Increasing amounts of [Ca^2+]i produced by receptor activation increase the amount of fluorescence produced by the dye and give rise to an increasing signal. The signal may be detected using the FLIPR instrument and the data generated may be analysed with suitable curve-fitting software.
# The human EP1 or EP3 calcium mobilisation assay (hereafter referred to as ‘the calcium assay’) utilises Chinese hamster ovary-K1 (CHO-K1) cells into which a stable (pCIN; BioTechniques 20 (1996): 102-110) vector containing either EP1 or EP3 cDNA has previously been transfected. Cells are cultured in suitable flasks containing culture medium such as DMEM:F-12 supplemented with 10% v/v foetal calf serum, 2 mM L-glutamine, 0.25 mg/ml geneticin, 100 μM flurbiprofen and 10 μg/ml puromycin.
# For assay, cells are harvested using a proprietary reagent that dislodges cells such as Versene. Cells are re-suspended in a suitable quantity of fresh culture media for introduction into a 384-well plate. Following incubation for 24 hours at 37° C. the culture media is replaced with a medium containing Fluo-4 and the detergent pluronic acid, and a further incubation takes place. Concentrations of compounds are then added to the plate in order to construct concentration-effect curves. This may be performed on the FLIPR in order to assess the agonist properties of the compounds. Concentrations of PGE2 are then added to the plate in order to assess the antagonist properties of the compounds.
# The data so generated may be analysed by means of a computerised curve-fitting routine. The concentration of compound that elicits a half-maximal inhibition of the calcium mobilisation induced by PGE2 (pIC50) may then be estimated.
Compound,Ki (human EP1 receptor) [µM],other results
"CC(C)COc1ccc(Cl)cc1Cc1cccc(-c2ncc[nH]2)n1 [Example 42, 2-({5-Chloro-2-[(2-methylpropyl)oxy]phenyl}methyl)-6-(1H-imidazol-2-yl)pyridine]",,IC50 [1]: ≤ 100 nM
"CN1CCN(c2ccc3nc(-c4cccc(Cc5cc(Cl)ccc5OCc5ccccc5)n4)[nH]c3c2)CC1 [Example 26, 2-[6-({5-Chloro-2-[(phenylmethyl)oxy]phenyl}methyl)-2-pyridinyl]-5-(4-methyl-1-piperazinyl)-1H-benzimidazole Hydrochloride]",≤ 10,
"O=C(Nc1cccc(Cc2cc(Cl)ccc2OCc2ccccc2)n1)c1cccnc1 [Example 16, N-[6-({5-Chloro-2-[(phenylmethyl)oxy]phenyl}methyl)-2-pyridinyl]-3-pyridinecarboxamide]",,IC50 (human EP1 receptor): > 10 µM
"CC(C)COc1ccc(Cl)cc1Cc1cccc(-c2nc3cnc4ccccc4c3[nH]2)n1 [Example 24, 2-[6-({5-Chloro-2-[(2-methylpropyl)oxy]phenyl}methyl)-2-pyridinyl]-1H-imidazo[4,5-c]quinoline hydrochloride]",≤ 0.316,
"Clc1ccc(OCc2ccccc2)c(Cc2cccc(-c3nc4cnccc4[nH]3)n2)c1 [Example 38, 2-[6-({5-Chloro-2-[(phenylmethyl)oxy]phenyl}methyl)-2-pyridinyl]-1H-imidazo[4,5-c]pyridinehydrochloride]",≤ 0.316,
"CN(C)Cc1ccc(NC(=O)c2cccc(Cc3cc(Cl)ccc3OCc3ccc(Cl)cc3F)n2)cc1 [Example 53, 6-[(5-Chloro-2-{[(4-chloro-2-fluorophenyl)methy]oxy}phenyl)methyl]-N-{4-[(dimethylamino)methyl]phenyl}-2-pyridinecarboxamide]",,IC50 [1]: ≤ 100 nM
"CC(C)COc1ccc(Cl)cc1Cc1cccc(NC(=O)c2ccc(CN3CCCCC3)cc2)n1 [Example 47, N-[6-({5-Chloro-2-[(2-methylpropyl)oxy]phenyl}methyl)-2-pyridinyl]-4-(1-piperidinylmethyl)benzamidehydrochloride]",≤ 10,
"CC(C)COc1ccc(Cl)cc1Cc1cccc(NC(=O)c2ccc(CN3CCCC3)cc2)n1 [Example 46, N-[6-({5-Chloro-2-[(2-methylpropyl)oxy]phenyl}methyl)-2-pyridinyl]-4-(1-pyrrolidinylmethyl)benzamidehydrochloride]",≤ 10,
"Fc1cc2nc(-c3cccc(Cc4cc(Cl)ccc4OCc4ccccc4)n3)[nH]c2cc1F [Example 37, 2-[6-({5-Chloro-2-[(phenylmethyl)oxy]phenyl}methyl)-2-pyridinyl]-5,6-difluoro-1H-benzimidazolehydrochloride]",,IC50 (human EP1 receptor): > 10 µM
"NC(=O)c1cccc(Cc2cc(Cl)ccc2OCc2ccc(Cl)cc2F)n1 [Example 63, 6-[(5-Chloro-2-{[(4-chloro-2-fluorophenyl)methyl]oxy}phenyl)methyl]-2-pyridinecarboxamide]",≤ 10,
"O=C(Cc1ccccc1)Nc1cccc(Cc2cc(Cl)ccc2OCc2ccccc2)n1 [Example 2, N-[6-({5-Chloro-2-[(phenylmethyl)oxy]phenyl}methyl)-2-pyridinyl]-2-phenylacetamide]",≤ 10,
"O=C(NCc1ccccc1)c1cccc(Cc2cc(Cl)ccc2OCc2ccccc2)n1 [Example 11, 6-({5-Chloro-2-[(phenylmethyl)oxy]phenyl}methyl)-N-(phenylmethyl)-2-pyridinecarboxamide]",,IC50 (human EP1 receptor): > 10 µM
"CC(C)COc1ccc(Cl)cc1Cc1cccc(-c2nc3ccc(CN4CCCCC4)cc3[nH]2)n1 [Example 50, 2-[6-({5-Chloro-2-[(2-methylpropyl)oxy]phenyl}methyl)-2-pyridinyl]-5-(1-piperidinylmethyl)-1H-benzimidazole hydrochloride]",≤ 10,
"CC(C)(C)OC(=O)Nc1cccc(Cc2cc(Cl)ccc2OCc2ccc(Cl)cc2F)n1 [Example 60, 1,1-Dimethylethyl {6-[(5-chloro-2-{[(4-chloro-2-fluoronhenyl)methyl]oxy}phenyl)methyl]-2-pyridinyl}carbamate]",≤ 10,
"O=C(Nc1cccc(Cc2cc(Cl)ccc2OCc2ccccc2)n1)C1CCCO1 (stereo not drawn) [Example 17, N-[6-({5-Chloro-2-[(phenylmethyl)oxy]phenyl}methyl)-2-pyridinyl]tetrahydro-2-furancarboxamide]",,IC50 [1]: ≤ 100 nM
"O=C(Nc1cccc(Cc2cc(Cl)ccc2OCc2ccccc2)n1)c1ccccc1 [Example 3, N-[6-({5-Chloro-2-[(phenylmethyl)oxy]phenyl}methyl)-2-pyridinyl]benzamide]",≤ 0.316,
"O=C(Nc1ccccc1)c1cccc(Cc2cc(Cl)ccc2OCc2ccccc2)n1 [Example 10, 6-({5-Chloro-2-[(phenylmethyl)oxy]phenyl}methyl)-N-phenyl-2-pyridinecarboxamide]",,IC50 (human EP1 receptor): > 10 µM
"Fc1ccc2nc(-c3cccc(Cc4cc(Cl)ccc4OCc4ccccc4)n3)[nH]c2c1F [Example 40, 2-[6-({5-Chloro-2-[(phenylmethyl)oxy]phenyl}methyl)-2-pyridinyl]-4,5-difluoro-1H-benzimidazolehydrochloride]",,IC50 (human EP1 receptor): > 10 µM
"O=C(NCc1ccccn1)c1cccc(Cc2cc(Cl)ccc2OCc2ccccc2)n1 [Example 7, 6-({5-Chloro-2-[(phenylmethyl)oxy]phenyl}methyl)-N-(2-pyridinylmethyl)-2-pyridinecarboxamide]",≤ 0.316,
"CC(C)COc1ccc(Cl)cc1Cc1cccc(NC(=O)c2ccc(CN3CCOCC3)cc2)n1 [Example 45, N-[6-({5-Chloro-2-[(2-methylpropyl)oxy]phenyl}methyl)-2-pyridinyl]-4-(4-morpholinylmethyl)benzamide Hydrochloride]",≤ 0.316,
"Fc1cccc2[nH]c(-c3cccc(Cc4cc(Cl)ccc4OCc4ccccc4)n3)nc12 [Example 32, 2-[6-({5-Chloro-2-[(phenylmethyl)oxy]phenyl}methyl)-2-pyridinyl]-4-fluoro-1H-benzimidazolehydrochioride]",≤ 10,
"O=C(Nc1ccccn1)c1cccc(Cc2cc(Cl)ccc2OCc2ccccc2)n1 [Example 6, 6-({5-Chloro-2-[(phenylmethyl)oxy]phenyl}methyl)-N-2-pyridinyl-2-pyridinecarboxamide]",,IC50 (human EP1 receptor): > 10 µM
"O=C(Nc1cccc(Cc2cc(Cl)ccc2OCc2ccccc2)n1)C1CCOC1 (stereo not drawn) [Example 18, N-[6-({5-Chloro-2-[(phenylmethyl)oxy]phenyl}methyl)-2-pyridinyl]tetrahydro-3-furancarboxamide]",,IC50 [1]: ≤ 100 nM
CC(C)COc1ccc(Cl)cc1Cc1cccc(NC(=O)c2ccc(CN3CCN(C)CC3)cc2)n1 [Example 48],≤ 10,
